Measured values from patent US20240101540A1, “TARGETED PROTEIN DEGRADATION OF PARP14 FOR USE IN THERAPY” (Ribon Therapeutics, Inc., priority 2022, published 2024).

Biological target: T1, catalytic domain of human PARP14 (residues 1611 to 1801) with NanoLuc tag (Homo sapiens, UniProt Q460N5)
T1 construct: expressed in transfected cells; host or cells: HEK-293T cells (ATCC), pcDNA3.1(-) vector
T1 sequence (Q460N5 1611-1801): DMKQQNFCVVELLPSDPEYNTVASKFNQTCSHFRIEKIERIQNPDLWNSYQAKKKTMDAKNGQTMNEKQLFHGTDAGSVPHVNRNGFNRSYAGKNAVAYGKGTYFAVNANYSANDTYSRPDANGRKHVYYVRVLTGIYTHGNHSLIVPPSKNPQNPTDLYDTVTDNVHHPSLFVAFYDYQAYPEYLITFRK
Assay: NanoLuc assay for the degradation of PARP14 (NanoLuc-tagged PARP14 overexpressed in HEK-293T cells, 2 hours)
Type: cell-based
Settings: Assay A (Example A): NanoLuc-tagged PARP14 degradation in HEK-293T cells, read-out: DC50

Row | Structure (SMILES) | DC50 [nM]
1 | O=C1CCC(N2C(=O)c3cccc(N4CCN(CC5CCN(C(=O)CN6CCC(COc7cc(F)c8c(=O)[nH]c(CCC9CCOCC9)nc8c7)CC6)CC5)CC4)c3C2=O)C(=O)N1 (centres unmarked) [Example 39, 2-(2,6-dioxopiperidin-3-yl)-4-(4-((1-(2-(4-(((5-fluoro-4-oxo-2-(2-(tetrahydro-2H-pyran-4-yl)ethyl)-3,4-dihydroquinazolin-7-yl)oxy)methyl)piperidin-1-yl)acetyl)piperidin-4-yl)methyl)piperazin-1-yl)isoindoline-1,3-dione] | < 100
2 | O=C1CCC(N2C(=O)c3cccc(N4CC(N5CCC(COc6cc(F)c7c(=O)[nH]c(CSC8CCOCC8)nc7c6)CC5)C4)c3C2=O)C(=O)N1 (centres unmarked) [Example 40, 2-(2,6-dioxopiperidin-3-yl)-4-(3-(4-(((5-fluoro-4-oxo-2-(((tetrahydro-2H-pyran-4-yl)thio)methyl)-3,4-dihydroquinazolin-7-yl)oxy)methyl)piperidin-1-yl)azetidin-1-yl)isoindoline-1,3-dione] | < 100
3 | O=C1CCC(N2C(=O)c3ccc(N4CC(N5CCC(COc6cc(F)c7c(=O)[nH]c(CSC8CCOCC8)nc7c6)CC5)C4)cc3C2=O)C(=O)N1 (centres unmarked) [Example 41, 2-(2,6-dioxopiperidin-3-yl)-5-(3-(4-(((5-fluoro-4-oxo-2-(((tetrahydro-2H-pyran-4-yl)thio)methyl)-3,4-dihydroquinazolin-7-yl)oxy)methyl)piperidin-1-yl)azetidin-1-yl)isoindoline-1,3-dione] | < 100
4 | O=C1CCC(N2C(=O)c3ccc(N4CC(N5CCC(COc6cc(F)c7c(=O)[nH]c(CSC8CCOCC8)nc7c6)C(F)(F)C5)C4)cc3C2=O)C(=O)N1 (centres unmarked) [Example 42, 5-(3-(3,3-difluoro-4-(((5-fluoro-4-oxo-2-(((tetrahydro-2H-pyran-4-yl)thio)methyl)-3,4-dihydroquinazolin-7-yl)oxy)methyl)piperidin-1-yl)azetidin-1-yl)-2-(2,6-dioxopiperidin-3-yl)isoindoline-1,3-dione] | < 100
5 | O=C1CCC(N2C(=O)c3ccc(/C=C/CN4CCC(COc5cc(F)c6c(=O)[nH]c(CSC7CCOCC7)nc6c5)CC4)cc3C2=O)C(=O)N1 (centres unmarked) [Example 43, (E)-2-(2,6-dioxopiperidin-3-yl)-5-(3-(4-(((5-fluoro-4-oxo-2-(((tetrahydro-2H-pyran-4-yl)thio)methyl)-3,4-dihydroquinazolin-7-yl)oxy)methyl)piperidin-1-yl)prop-1-en-1-yl)isoindoline-1,3-dione] | < 100
6 | CN1CCC(SCc2nc3cc(OCC4CCN(c5ccc6c(c5)C(=O)N(C5CCC(=O)NC5=O)C6=O)CC4)cc(F)c3c(=O)[nH]2)CC1 (centres unmarked) [Example 44, 2-(2,6-dioxopiperidin-3-yl)-5-(4-(((5-fluoro-2-(((1-methylpiperidin-4-yl)thio)methyl)-4-oxo-3,4-dihydroquinazolin-7-yl)oxy)methyl)piperidin-1-yl)isoindoline-1,3-dione] | < 100
7 | O=C1CCC(c2ccc(NCC#CCN3CCC(COc4cc(F)c5c(=O)[nH]c(CSC6CCOCC6)nc5c4)CC3)cc2)C(=O)N1 (centres unmarked) [Example 45, 3-(4-((4-(4-(((5-fluoro-4-oxo-2-(((tetrahydro-2H-pyran-4-yl)thio)methyl)-3,4-dihydroquinazolin-7-yl)oxy)methyl)piperidin-1-yl)but-2-yn-1-yl)amino)phenyl)piperidine-2,6-dione] | < 100
8 | O=C1CCC(Nc2ccc(OCC3CC(N4CCC(COc5cc(F)c6c(=O)[nH]c(CSC7CCOCC7)nc6c5)CC4)C3)cc2)C(=O)N1 (centres unmarked) [Example 46, 3-((4-((3-(4-(((5-fluoro-4-oxo-2-(((tetrahydro-2H-pyran-4-yl)thio)methyl)-3,4-dihydroquinazolin-7-yl)oxy)methyl)piperidin-1-yl)cyclobutyl)methoxy)phenyl)amino)piperidine-2,6-dione] | < 100
